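Interpolation was linear, between the two tested concentrations surrounding the appropriate level; five concentrations were tested over 48 hours in 96-well plates. GI50 marks 50% less growth. The concentration for full growth arrest is given as TGI.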
Assays:
Test in all cases: inhibition of tumour cell growth, NCI panel, 48 h
[1] = test system: KM12 colon
[2] = test system: SW-620 colon
[3] = test system: OVCAR-3 ovarian
[4] = test system: IGROV1 ovarian
[5] = test system: SR leukemia
[6] = test system: NCI-H460 lung
[7] = test system: HOP-62 NSCLC
[8] = test system: SK-OV-3 ovarian
[9] = test system: MCF7 breast
[10] = test system: HT29 colon
[11] = test system: OVCAR-8 ovarian
[12] = test system: CAKI-1 renal
[13] = test system: HCC-2998 colon
[14] = test system: DU-145 prostate
[15] = test system: SF-295 CNS
[16] = test system: UACC-62 melanoma
[17] = test system: NCI/ADR-RES ovarian
[18] = test system: RPMI-8226 leukemia
[19] = test system: HS 578T breast
[20] = test system: M14 melanoma
[21] = test system: MDA-MB-435
[22] = test system: SF-539 CNS
[23] = test system: LOX IMVI melanoma
[24] = test system: A498 renal
[25] = test system: U251 CNS
[26] = test system: 786-0 renal
[27] = test system: ACHN renal
[28] = test system: MDA-MB-231 breast
[29] = test system: CCRF-CEM leukemia
[30] = test system: NCI-H522 lung
[31] = test system: OVCAR-4 ovarian
[32] = test system: SN12C renal
[33] = test system: SNB-19 CNS
[34] = test system: BT-549 breast
[35] = test system: A549 NSCLC
[36] = test system: MOLT-4 leukemia
[37] = test system: UACC-257 melanoma
[38] = test system: T-47D breast
[39] = test system: K-562 leukemia
[40] = test system: COLO 205 colon
[41] = test system: UO-31 renal
[42] = test system: HOP-92 NSCLC
[43] = test system: RXF 393 renal
[44] = test system: HCT-15 colon
[45] = test system: OVCAR-5 ovarian
[46] = test system: NCI-H23 lung
[47] = test system: SK-MEL-28 melanoma
[48] = test system: SK-MEL-5 melanoma
[49] = test system: MALME-3M melanoma
[50] = test system: PC-3 prostate
[51] = test system: SK-MEL-2 melanoma
[52] = test system: HCT-116 colon
[53] = test system: EKVX NSCLC
[54] = test system: TK-10 renal
[55] = test system: SF-268 CNS
[56] = test system: HL-60(TB) leukemia
[57] = test system: NCI-H226 lung
[58] = test system: SNB-75 CNS

CC(=O)Oc1cn(-c2ccc(Cl)cc2)nc1C1=NN(C(C)=O)C(c2ccc(F)cc2F)O1 (stereo not given)
GI50 [1]: 25.4 µM
TGI [1]: 84.2 µM
GI50 [2]: 41.4 µM
TGI [2]: > 100 µM
GI50 [3]: 19.7 µM
TGI [3]: 75.9 µM
GI50 [4]: 13.4 µM
TGI [4]: 76.2 µM
GI50 [5]: 35.8 µM
TGI [5]: 85.4 µM
GI50 [6]: 34.4 µM
TGI [6]: > 100 µM
GI50 [7]: 36.2 µM
TGI [7]: > 100 µM
GI50 [8]: 50.4 µM
TGI [8]: > 100 µM
GI50 [9]: 30 µM
TGI [9]: > 100 µM
GI50 [10]: 40.1 µM
TGI [10]: > 100 µM
GI50 [11]: 34.6 µM
TGI [11]: > 100 µM
GI50 [12]: 35.6 µM
TGI [12]: 79.8 µM
GI50 [13]: 35.7 µM
TGI [13]: 55.3 µM
GI50 [14]: 39.2 µM
TGI [14]: > 100 µM
GI50 [15]: 20.2 µM
TGI [15]: 51.3 µM
GI50 [16]: 28.8 µM
TGI [16]: 96.3 µM
GI50 [17]: 42.9 µM
TGI [17]: > 100 µM
GI50 [18]: 20.5 µM
TGI [18]: 54.8 µM
GI50 [19]: 31.8 µM
TGI [19]: 88.8 µM
GI50 [20]: 31.4 µM
TGI [20]: > 100 µM
GI50 [21]: 27.9 µM
TGI [21]: 89.5 µM
GI50 [22]: 29.8 µM
TGI [22]: > 100 µM
GI50 [23]: 30.1 µM
TGI [23]: > 100 µM
GI50 [24]: 29.1 µM
TGI [24]: 66.4 µM
GI50 [25]: 38.5 µM
TGI [25]: > 100 µM
GI50 [26]: 26.1 µM
TGI [26]: 70.3 µM
GI50 [27]: 44.3 µM
TGI [27]: > 100 µM
GI50 [28]: 30.4 µM
TGI [28]: > 100 µM
GI50 [29]: 27.5 µM
TGI [29]: > 100 µM
GI50 [30]: 45.6 µM
TGI [30]: > 100 µM
GI50 [31]: 74.3 µM
TGI [31]: > 100 µM
GI50 [32]: 33.6 µM
TGI [32]: > 100 µM
GI50 [33]: 48.7 µM
TGI [33]: > 100 µM
GI50 [34]: 19.5 µM
TGI [34]: 54.7 µM
GI50 [35]: 33.2 µM
TGI [35]: > 100 µM
GI50 [36]: 18.5 µM
TGI [36]: 94 µM
GI50 [37]: 27.2 µM
TGI [37]: 81.6 µM
GI50 [38]: 67.3 µM
TGI [38]: > 100 µM
GI50 [39]: 30 µM
TGI [39]: > 100 µM
GI50 [40]: 42.7 µM
TGI [40]: > 100 µM
GI50 [41]: 31.8 µM
TGI [41]: > 100 µM
GI50 [42]: 20.6 µM
TGI [42]: 71.6 µM
GI50 [43]: 23.9 µM
TGI [43]: > 100 µM
GI50 [44]: 32.2 µM
TGI [44]: > 100 µM
GI50 [45]: 44.4 µM
TGI [45]: > 100 µM
GI50 [46]: 41.6 µM
TGI [46]: > 100 µM
GI50 [47]: 50.2 µM
TGI [47]: > 100 µM
GI50 [48]: 18.4 µM
TGI [48]: 38.4 µM
GI50 [49]: 14.8 µM
TGI [49]: 63.5 µM
GI50 [50]: 27.9 µM
TGI [50]: > 100 µM
GI50 [51]: 74 µM
TGI [51]: > 100 µM
GI50 [52]: 33.4 µM
TGI [52]: > 100 µM
GI50 [53]: 28.5 µM
TGI [53]: 83 µM
GI50 [54]: 21.1 µM
TGI [54]: 61.9 µM
GI50 [55]: 29.6 µM
TGI [55]: > 100 µM

COc1ccc(C(=O)N2N=C(c3ccc(Br)cc3)CC2c2cn(-c3ccccc3)nc2-c2ccccc2)cc1 (stereo not given)
GI50 [1]: > 50 µM
TGI [1]: > 50 µM
GI50 [56]: 30.5 µM
TGI [56]: > 50 µM
GI50 [2]: > 50 µM
TGI [2]: > 50 µM
GI50 [3]: 23.9 µM
TGI [3]: > 50 µM
GI50 [4]: 19.4 µM
TGI [4]: > 50 µM
GI50 [5]: 7.78 µM
TGI [5]: 16.2 µM
GI50 [6]: 15.3 µM
TGI [6]: > 50 µM
GI50 [7]: 9.05 µM
TGI [7]: 44.5 µM
GI50 [8]: 12.1 µM
TGI [8]: 36.3 µM
GI50 [9]: > 50 µM
TGI [9]: > 50 µM
GI50 [10]: > 50 µM
TGI [10]: > 50 µM
GI50 [11]: 8.55 µM
TGI [11]: > 50 µM
GI50 [12]: 41.7 µM
TGI [12]: > 50 µM
GI50 [13]: > 50 µM
TGI [13]: > 50 µM
GI50 [14]: 25 µM
TGI [14]: > 50 µM
GI50 [15]: 17 µM
TGI [15]: > 50 µM
GI50 [16]: 42.8 µM
TGI [16]: > 50 µM
GI50 [17]: 33 µM
TGI [17]: > 50 µM
GI50 [18]: > 50 µM
TGI [18]: > 50 µM
GI50 [19]: 20.5 µM
TGI [19]: > 50 µM
GI50 [20]: 15.7 µM
TGI [20]: > 50 µM
GI50 [21]: > 50 µM
TGI [21]: > 50 µM
GI50 [57]: 18.3 µM
TGI [57]: > 50 µM
GI50 [22]: 39.5 µM
TGI [22]: > 50 µM
GI50 [23]: 42.1 µM
TGI [23]: > 50 µM
GI50 [24]: 6.82 µM
TGI [24]: 28.5 µM
GI50 [58]: 30.3 µM
TGI [58]: > 50 µM
GI50 [25]: 13 µM
TGI [25]: > 50 µM
GI50 [26]: 19 µM
TGI [26]: > 50 µM
GI50 [27]: 18.9 µM
TGI [27]: > 50 µM
GI50 [28]: 5.47 µM
TGI [28]: > 50 µM
GI50 [29]: 9.86 µM
TGI [29]: 29.7 µM
GI50 [31]: 15.2 µM
TGI [31]: > 50 µM
GI50 [32]: 47.4 µM
TGI [32]: > 50 µM
GI50 [33]: 20.4 µM
TGI [33]: > 50 µM
GI50 [34]: 30.6 µM
TGI [34]: > 50 µM
GI50 [35]: 4.28 µM
TGI [35]: > 50 µM
GI50 [36]: 11.4 µM
TGI [36]: 25.3 µM
GI50 [37]: > 50 µM
TGI [37]: > 50 µM
GI50 [38]: 13.4 µM
TGI [38]: > 50 µM
GI50 [40]: > 50 µM
TGI [40]: > 50 µM
GI50 [41]: 42.6 µM
TGI [41]: > 50 µM
GI50 [42]: 1.79 µM
TGI [42]: 15.8 µM
GI50 [43]: 6.28 µM
TGI [43]: > 50 µM
GI50 [44]: > 50 µM
TGI [44]: > 50 µM
GI50 [45]: > 50 µM
TGI [45]: > 50 µM
GI50 [46]: 20.8 µM
TGI [46]: > 50 µM
GI50 [47]: > 50 µM
TGI [47]: > 50 µM
GI50 [48]: 15 µM
TGI [48]: > 50 µM
GI50 [49]: > 50 µM
TGI [49]: > 50 µM
GI50 [50]: > 50 µM
TGI [50]: > 50 µM
GI50 [52]: 2.87 µM
TGI [52]: > 50 µM
GI50 [53]: > 50 µM
TGI [53]: > 50 µM
GI50 [54]: 20.6 µM
TGI [54]: > 50 µM
GI50 [55]: 34.8 µM
TGI [55]: > 50 µM

— PubChem BioAssay (NCI)
